Laboratory results: ChEMBL document CHEMBL6071147, “A novel 7-phenoxy-benzimidazole derivative as a potent and orally available BRD4 inhibitor for the treatment of melanoma” (Bioorg Med Chem, 2024)

Target: Bromodomain testis-specific protein (Homo sapiens, UniProt Q58F21)
Assay: Displacement of [Lys(5,8,12,16)Ac]H4(1 to 21)-biotin from BRDT-BD1 (unknown origin) by TR-FRET assay

## Cn1cc(-c2ccc3nc(C4CCOCC4)[nH]c3c2Oc2ccccc2)ccc1=O
  IC50: 22 nM
